The text below walks through data of article PMC4433817 (Journal of molecular biology, 2015).

The target in this assay is IspG (GcpE) (Thermus thermophilus, UniProt Q5SLI8). Description: co-crystal X-ray structure. It is filed as biochemical.
IspG (GcpE), sequence (Q5SLI8 whole entry): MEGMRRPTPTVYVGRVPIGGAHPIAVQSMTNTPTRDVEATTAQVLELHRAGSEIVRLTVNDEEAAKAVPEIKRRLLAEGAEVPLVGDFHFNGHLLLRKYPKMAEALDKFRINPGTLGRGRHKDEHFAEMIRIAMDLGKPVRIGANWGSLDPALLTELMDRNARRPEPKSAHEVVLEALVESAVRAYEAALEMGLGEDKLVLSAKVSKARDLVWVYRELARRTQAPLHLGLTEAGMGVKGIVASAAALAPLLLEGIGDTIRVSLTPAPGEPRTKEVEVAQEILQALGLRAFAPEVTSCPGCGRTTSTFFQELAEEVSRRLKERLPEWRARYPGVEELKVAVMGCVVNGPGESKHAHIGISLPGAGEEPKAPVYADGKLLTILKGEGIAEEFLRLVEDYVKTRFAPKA

Regarding `O=P(O)(O)OP(=O)(O)O` [compound 6, diphosphate], the half-maximal inhibitory concentration (IC50) – broadly, the midpoint of a concentration-inhibition curve – worked out at 20 µM. This counts as double-digit micromolar.
